Test results published in patent US20100160440A1, “INTRANASAL PHARMACEUTICAL COMPOSITIONS COMPRISING SUCCINIC ACID AND METHODS THEREOF” (priority 2007, published 2010).
Where two headings read alike, the source gives them in different places.

System: male Wistar rats injected with beta-amyloid peptide 25-35 into NBM
Conditions: for Improvement in learning and memory as compared to control rats: 1 mg/kg for 7 days; for Latency (retention latency to enter dark compartment, mean±SD): 1 mg/kg succinic acid water solution once a day for 7 days from day 16 after beta-amyloid, retention trial 24 h after acquisition, cut-off 180 s, n=8
Experimental: Beta-amyloid was administered bilaterally into NBM of male Wistar rats in dose of 2 μg per each side. On day 16th after the amyloid injection, rats received intranasally or intraperitoneally compositions comprising a water solution of 1 mg/kg of succinic acid for 7 days singly a day. Control rats received saline intranasally. On day next to the last day of the treatment, passive avoidance performance in rats was tested for two consecutive days. A two-compartment, step-through, passive avoidance apparatus consisting of illuminated (25×40×25 cm) and dark (25×40×25 cm) compartments attached to an electrified grid floor and separated by a guillotine door (8×8 cm) was used. In the acquisition trial, the rat was placed in the illuminated compartment in a position its tail directed to the closed door for 2 min to habituate to the apparatus. The guillotine door was opened and time to enter to dark compartment was recorded. When the rat entered to dark compartment completely (four foots in dark compartment), the guillotine door was closed and the rat was delivered an electrical shock of 0.8 mA for 3 sec through the grid floor. After the shock, the rat was immediately placed in home cage. In the retention trial, conducted 24 h after the acquisition trial, the rat was placed in the illuminated compartment and the retention latency to enter into the dark compartment was recorded until 180 s had elapsed. […] Data are presented as retention latency mean±SD (n=8).

Compound: O=C(O)CCC(=O)O [Succinic acid]
- Improvement in learning and memory as compared to control rats (intranasally treated rats): significant improvement in learning and memory
- Latency (retention latency to enter dark compartment, mean±SD) (intranasally): 87 ± 21 s
- Improvement in learning and memory as compared to control rats (intraperitoneally treated rats): do not
- Latency (retention latency to enter dark compartment, mean±SD) (intraperitoneally): 43 ± 19 s
